The source made the active and inactive calls.
What was measured:
Streptokinase A = biological target: T1, Streptokinase A (Streptococcus pyogenes serotype M1, UniProt P10520); experiment: viability-normalized secreted streptokinase activity reduction – plasminogen activation absorbance, OD405, dose response (AID 1914); type: functional, Streptococcus pyogenes M1 GAS;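 further: secreted streptokinase activity via plasminogen activation per viability signal from cell pellet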
T1 sequence (P10520 whole entry): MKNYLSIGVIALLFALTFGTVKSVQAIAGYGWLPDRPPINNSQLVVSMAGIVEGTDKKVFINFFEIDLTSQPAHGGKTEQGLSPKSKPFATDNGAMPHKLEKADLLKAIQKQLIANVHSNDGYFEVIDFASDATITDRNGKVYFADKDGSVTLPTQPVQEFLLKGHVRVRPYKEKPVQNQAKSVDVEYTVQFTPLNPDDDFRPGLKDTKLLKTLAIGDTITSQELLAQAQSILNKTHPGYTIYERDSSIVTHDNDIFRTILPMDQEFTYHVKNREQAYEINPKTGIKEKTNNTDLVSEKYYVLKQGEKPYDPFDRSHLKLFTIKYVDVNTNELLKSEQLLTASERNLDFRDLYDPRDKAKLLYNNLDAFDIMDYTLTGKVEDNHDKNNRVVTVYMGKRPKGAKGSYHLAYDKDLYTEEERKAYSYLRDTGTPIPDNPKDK

Caspase-3 = biological target: T2, Caspase-3 (Homo sapiens, UniProt P42574); type: functional;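 further: Dose-response selectivity test against caspase-3 for candidate inhibitors of sentrin-specific proteases (SENPs)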
T2 sequence (P42574 whole entry): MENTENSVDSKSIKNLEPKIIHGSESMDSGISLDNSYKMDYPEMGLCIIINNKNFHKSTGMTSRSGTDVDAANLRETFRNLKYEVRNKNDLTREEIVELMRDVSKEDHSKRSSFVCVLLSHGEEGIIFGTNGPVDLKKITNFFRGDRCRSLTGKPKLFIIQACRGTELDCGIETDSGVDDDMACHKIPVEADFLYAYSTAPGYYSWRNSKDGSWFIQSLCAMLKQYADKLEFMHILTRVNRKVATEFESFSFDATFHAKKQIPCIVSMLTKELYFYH

SMILES	EC50 (Streptokinase A)	IC50 (Caspase-3)
Cc1nc2c(=O)n(C)c(=O)nc-2n(C)n1	> 150 µM (not active)	
Oc1nc(Nc2ccccc2Cl)cc2ccccc12		4.42 µM (active)

— ChEMBL document CHEMBL1201862, “PubChem BioAssay data set” (2004)
